Source: patent US20140044814A1, “Composition and Methods for Permanent Hair Removal” (priority 2012, published 2014)

Assay: Sea salt added to the turmeric mixture, folliculitis after treatment
Format: in vivo
Excerpt: It is believed that the sea salt help to open or penetrate the cellular wall. […] It is believed that the sea salt should be between about 1-10 parts of the turmeric mixture, with the remaining 90-99 parts being turmeric and milk/clay/etc. A presently preferred range is about 1-2 parts sea salt to about […] turmeric mixture.

folliculitis after treatment: appears to help to minimize folliculitis
Substance: sea salt
